Source: US20120029187A1, “HALOALKYLSULFONANILIDE DERIVATIVE” (Nissan Chemical Industries, Ltd., priority 2009, published 2012)

Key:
Assay type in all cases: in vivo
[1] = tested on: transplanted rice; assay: Test Example 1: preemergence treatment under submerged conditions, effect on crop; conditions: dose 2.52 g/a
Method in brief: (§1)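 Scoring 0 (<5% mortality) to 5 (≥90%) was done three weeks after preemergence application to the water surface of submerged (4 cm) alluvial soil, doses given as g per are. Weeds were seeded and 2.5-leaf rice transplanted on the treatment day; greenhouse at 25–30 °C.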

[2] = tested on: beadstraw; assay: Test Example 3: herbicidal effects in soil treatment; conditions: dose 3.2 g/a
Method in brief: (§2)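 Seeds were sown in sterilized diluvial soil and covered with about 1.5 cm of soil. Compounds, formulated as emulsifiable concentrates and diluted with water, were sprayed evenly over the soil surface at set doses in g/a. Herbicidal effect was scored on a rating scale three weeks later.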

[3] = tested on: large crabgrass; assay: as above; conditions: dose 3.2 g/a
Method in brief: as §2

[4] = tested on: redroot pigweed; assay: as above; conditions: dose 3.2 g/a
Method in brief: as §2

[5] = tested on: Italian ryegrass; assay: as above; conditions: dose 3.2 g/a
Method in brief: as §2

[6] = tested on: common ragweed; assay: as above; conditions: dose 3.2 g/a
Method in brief: as §2

[7] = tested on: posumbu knotweed; assay: as above; conditions: dose 3.2 g/a
Method in brief: as §2

[8] = tested on: barnyardgrass; assay: as above; conditions: dose 3.2 g/a
Method in brief: as §2

[9] = tested on: common lambsquater; assay: as above; conditions: dose 3.2 g/a
Method in brief: as §2

[10] = tested on: common chickweed; assay: as above; conditions: dose 3.2 g/a
Method in brief: as §2

[11] = tested on: velvetleaf; assay: as above; conditions: dose 3.2 g/a
Method in brief: as §2

[12] = tested on: giant foxtail; assay: as above; conditions: dose 3.2 g/a
Method in brief: as §2

[13] = tested on: water foxtail; assay: as above; conditions: dose 3.2 g/a
Method in brief: as §2

[14] = tested on: bulrush; assay: Test Example 1: herbicidal effects in preemergence treatment under submerged conditions; conditions: dose 2.52 g/a
Method in brief: as §1

[15] = tested on: barnyardgrass; assay: as above; conditions: dose 2.52 g/a
Method in brief: as §1

[16] = tested on: ducksalad; assay: as above; conditions: dose 2.52 g/a
Method in brief: as §1

[17] = tested on: bulrush; assay: Test Example 2: herbicidal effects during the vegetation period under submerged conditions; conditions: treatment during the vegetation period under submerged conditions; dose 2.52 g/a
Method in brief: (§3)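 Barnyardgrass, bulrush and ducksalad were co-sown in alluvial soil flooded to 4 cm and grown in a greenhouse at 25 to 30° C. At the 1- or 2-leaf stage, water-diluted emulsifiable concentrates went onto the water surface at set doses (g/a). Herbicidal effect was scored three weeks later on a graded scale.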

[18] = tested on: barnyardgrass; assay: as above; conditions: treatment during the vegetation period under submerged conditions; dose 2.52 g/a
Method in brief: as §3

[19] = tested on: ducksalad; assay: as above; conditions: treatment during the vegetation period under submerged conditions; dose 2.52 g/a
Method in brief: as §3

[20] = tested on: large crabgrass; assay: Test Example 4: herbicidal effect in foliage treatment; conditions: dose 3.2 g/a, three weeks after application
Method in brief: (§4)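 A uniform foliar spray of emulsifiable concentrate, diluted with water to give the stated g/a dose, was applied to plants raised for 14 days from seed in sterilized diluvial soil at 25 to 30° C. Herbicidal effects were scored three weeks later.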

[21] = tested on: redroot pigweed; assay: as above; conditions: dose 3.2 g/a, three weeks after application
Method in brief: as §4

[22] = tested on: Italian ryegrass; assay: as above; conditions: dose 3.2 g/a, three weeks after application
Method in brief: as §4

[23] = tested on: common ragweed; assay: as above; conditions: dose 3.2 g/a, three weeks after application
Method in brief: as §4

[24] = tested on: posumbu knotweed; assay: as above; conditions: dose 3.2 g/a, three weeks after application
Method in brief: as §4

[25] = tested on: barnyardgrass; assay: as above; conditions: dose 3.2 g/a, three weeks after application
Method in brief: as §4

[26] = tested on: common lambsquater; assay: as above; conditions: dose 3.2 g/a, three weeks after application
Method in brief: as §4

[27] = tested on: common chickweed; assay: as above; conditions: dose 3.2 g/a, three weeks after application
Method in brief: as §4

[28] = tested on: velvetleaf; assay: as above; conditions: dose 3.2 g/a, three weeks after application
Method in brief: as §4

[29] = tested on: giant foxtail; assay: as above; conditions: dose 3.2 g/a, three weeks after application
Method in brief: as §4

[30] = tested on: water foxtail; assay: as above; conditions: dose 3.2 g/a, three weeks after application
Method in brief: as §4

`CC1(C2CC2)CC(=O)N(Cc2ccccc2NS(=O)(=O)C(F)(F)F)CO1` (stereo not drawn) [II-44] was tested, and the “a: transplanted rice, effect on crop (evaluation scale 0-5)” value [1] was 3 (mortality of at least 40% and less than 70%), the “O: beadstraw, herbicidal effect (evaluation scale 0-5)” value [2] was 0 (mortality of less than 5% (almost ineffective)) and the “D: large crabgrass, herbicidal effect (evaluation scale 0-5)” value [3] was 4 (mortality of at least 70% and less than 90%). For the same compound, the “K: redroot pigweed, herbicidal effect (evaluation scale 0-5)” value [4] was 0 (mortality of less than 5% (almost ineffective)), the “H: Italian ryegrass, herbicidal effect (evaluation scale 0-5)” value [5] was 5 (mortality of 90% or above (nearly complete death)) and the “J: common ragweed, herbicidal effect (evaluation scale 0-5)” value [6] was 3 (mortality of at least 40% and less than 70%). For the same compound, the “M: posumbu knotweed, herbicidal effect (evaluation scale 0-5)” value [7] was 3 (mortality of at least 40% and less than 70%), the “A: barnyardgrass, herbicidal effect (evaluation scale 0-5)” value [8] was 5 (mortality of 90% or above (nearly complete death)) and the “L: common lambsquater, herbicidal effect (evaluation scale 0-5)” value [9] was 0 (mortality of less than 5% (almost ineffective)). The “N: common chickweed, herbicidal effect (evaluation scale 0-5)” value [10] was 2 (mortality of at least 20% and less than 40%), the “I: velvetleaf, herbicidal effect (evaluation scale 0-5)” value [11] was 3 (mortality of at least 40% and less than 70%) and the “E: giant foxtail, herbicidal effect (evaluation scale 0-5)” value [12] was 4 (mortality of at least 70% and less than 90%). For the same compound, the “G: water foxtail, herbicidal effect (evaluation scale 0-5)” value [13] was 5 (mortality of 90% or above (nearly complete death)), the “B: bulrush, herbicidal effect (evaluation scale 0-5)” value (from here on “B: bulrush, herbicidal effect”) [14] was 5 (mortality of 90% or above (nearly complete death)) and the “A: barnyardgrass, herbicidal effect (evaluation scale 0-5)” value [15] was 5 (mortality of 90% or above (nearly complete death)). The “C: ducksalad, herbicidal effect (evaluation scale 0-5)” value (“C: ducksalad, herbicidal effect” below) [16] was 5 (mortality of 90% or above (nearly complete death)), the “B: bulrush, herbicidal effect” value [17] was 5 (mortality of 90% or above (nearly complete death)) and the “A: barnyardgrass, herbicidal effect (evaluation scale 0-5)” value [18] was 5 (mortality of 90% or above (nearly complete death)). The “C: ducksalad, herbicidal effect” value [19] was 5 (mortality of 90% or above (nearly complete death)), the “D: large crabgrass, herbicidal effect” value [20] was 2 (mortality of at least 20% and less than 40%) and the “K: redroot pigweed, herbicidal effect” value [21] was 0 (mortality of less than 5% (almost ineffective)). For the same compound, the “H: Italian ryegrass, herbicidal effect” value [22] was 4 (mortality of at least 70% and less than 90%), the “J: common ragweed, herbicidal effect” value [23] was 2 (mortality of at least 20% and less than 40%) and the “M: posumbu knotweed, herbicidal effect” value [24] was 1 (mortality of at least 5% and less than 20%). For the same compound, the “A: barnyardgrass, herbicidal effect” value [25] was 4 (mortality of at least 70% and less than 90%), the “L: common lambsquater, herbicidal effect” value [26] was 1 (mortality of at least 5% and less than 20%) and the “N: common chickweed, herbicidal effect” value [27] was 4 (mortality of at least 70% and less than 90%). For the same compound, the “I: velvetleaf, herbicidal effect” value [28] was 3 (mortality of at least 40% and less than 70%), the “E: giant foxtail, herbicidal effect” value [29] was 3 (mortality of at least 40% and less than 70%) and the “G: water foxtail, herbicidal effect” value [30] was 4 (mortality of at least 70% and less than 90%).
`O=C1CC2(CCCC2)OCN1Cc1ccccc1NS(=O)(=O)C(F)(F)F` [II-64] was tested, and the “a: transplanted rice, effect on crop (evaluation scale 0-5)” value [1] was 0 (mortality of less than 5% (almost ineffective)), the “O: beadstraw, herbicidal effect (evaluation scale 0-5)” value [2] was 4 (mortality of at least 70% and less than 90%) and the “D: large crabgrass, herbicidal effect (evaluation scale 0-5)” value [3] was 5 (mortality of 90% or above (nearly complete death)). The “K: redroot pigweed, herbicidal effect (evaluation scale 0-5)” value [4] was 4 (mortality of at least 70% and less than 90%), the “H: Italian ryegrass, herbicidal effect (evaluation scale 0-5)” value [5] was 5 (mortality of 90% or above (nearly complete death)) and the “J: common ragweed, herbicidal effect (evaluation scale 0-5)” value [6] was 4 (mortality of at least 70% and less than 90%). The “M: posumbu knotweed, herbicidal effect (evaluation scale 0-5)” value [7] was 5 (mortality of 90% or above (nearly complete death)), the “A: barnyardgrass, herbicidal effect (evaluation scale 0-5)” value [8] was 5 (mortality of 90% or above (nearly complete death)) and the “L: common lambsquater, herbicidal effect (evaluation scale 0-5)” value [9] was 5 (mortality of 90% or above (nearly complete death)). For the same compound, the “N: common chickweed, herbicidal effect (evaluation scale 0-5)” value [10] was 4 (mortality of at least 70% and less than 90%), the “I: velvetleaf, herbicidal effect (evaluation scale 0-5)” value [11] was 3 (mortality of at least 40% and less than 70%) and the “E: giant foxtail, herbicidal effect (evaluation scale 0-5)” value [12] was 5 (mortality of 90% or above (nearly complete death)). The “G: water foxtail, herbicidal effect (evaluation scale 0-5)” value [13] was 5 (mortality of 90% or above (nearly complete death)), the “B: bulrush, herbicidal effect” value [14] was 5 (mortality of 90% or above (nearly complete death)) and the “A: barnyardgrass, herbicidal effect (evaluation scale 0-5)” value [15] was 5 (mortality of 90% or above (nearly complete death)). The “C: ducksalad, herbicidal effect” value [16] was 5 (mortality of 90% or above (nearly complete death)), the “B: bulrush, herbicidal effect” value [17] was 5 (mortality of 90% or above (nearly complete death)) and the “A: barnyardgrass, herbicidal effect (evaluation scale 0-5)” value [18] was 5 (mortality of 90% or above (nearly complete death)). For the same compound, the “C: ducksalad, herbicidal effect” value [19] was 5 (mortality of 90% or above (nearly complete death)), the “D: large crabgrass, herbicidal effect” value [20] was 4 (mortality of at least 70% and less than 90%) and the “K: redroot pigweed, herbicidal effect” value [21] was 0 (mortality of less than 5% (almost ineffective)). The “H: Italian ryegrass, herbicidal effect” value [22] was 3 (mortality of at least 40% and less than 70%), the “J: common ragweed, herbicidal effect” value [23] was 3 (mortality of at least 40% and less than 70%) and the “M: posumbu knotweed, herbicidal effect” value [24] was 3 (mortality of at least 40% and less than 70%). The “A: barnyardgrass, herbicidal effect” value [25] was 4 (mortality of at least 70% and less than 90%), the “L: common lambsquater, herbicidal effect” value [26] was 2 (mortality of at least 20% and less than 40%) and the “N: common chickweed, herbicidal effect” value [27] was 4 (mortality of at least 70% and less than 90%). For the same compound, the “I: velvetleaf, herbicidal effect” value [28] was 1 (mortality of at least 5% and less than 20%), the “E: giant foxtail, herbicidal effect” value [29] was 4 (mortality of at least 70% and less than 90%) and the “G: water foxtail, herbicidal effect” value [30] was 5 (mortality of 90% or above (nearly complete death)).
